Drawing on PubChem BioAssay (NCI), this text covers TGI for 19 compounds.

Among the test systems are A498 renal; HCT-15 colon; M14 melanoma; NCI/ADR-RES ovarian; OVCAR-8 ovarian; RPMI-8226 leukemia; SF-295 CNS; SF-539 CNS; SK-MEL-28 melanoma; SNB-75 CNS.
Experiment in all cases: growth of human tumour cells (NCI), 48 h

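Five compound concentrations were applied to cells in 96-well plates for 48 hours; endpoints were derived by simple linear interpolation of the resulting dose-response curve. TGI marks complete inhibition of growth.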

For `CC(C)(C)[C@H]1CCC2(OCCO2)[C@](O)(CCCO)C1`, the TGI with A498 renal, in the assay on HCT-15 colon, in the assay on M14 melanoma, in the assay on NCI/ADR-RES ovarian, with OVCAR-8 ovarian and in the assay on RPMI-8226 leukemia was above 100 µM in each case. In addition, the TGI with SF-295 CNS, in the assay on SF-539 CNS, in the assay with SK-MEL-28 melanoma and with SNB-75 CNS was above 100 µM each time.
Regarding `COc1cc2c(cc1OC)-c1cc3cc(OC)c(OC)cc3c(=O)n1CC2`, the TGI is 45.2 µM in the assay with A498 renal; above 100 µM with HCT-15 colon; above 100 µM in the assay with M14 melanoma; above 80.1 µM in the assay on NCI/ADR-RES ovarian; above 100 µM in the assay on OVCAR-8 ovarian; 47.2 µM with RPMI-8226 leukemia. Further, the TGI with SF-295 CNS was above 100 µM; in the assay on SF-539 CNS, 50.9 µM; in the assay with SK-MEL-28 melanoma, above 100 µM; with SNB-75 CNS it was above 79.3 µM.
In the case of `Clc1nc(Cl)c(CBr)c(Cl)n1`, the TGI in the assay with A498 renal is 32.1 µM; in the assay on HCT-15 colon it was 7.91 µM; in the assay with M14 melanoma, 8.38 µM; in the assay with NCI/ADR-RES ovarian, above 43.2 µM; in the assay on OVCAR-8 ovarian, 10.2 µM; with RPMI-8226 leukemia, 4.06 µM. Besides, the TGI in the assay with SF-295 CNS stood at 16.1 µM; with SF-539 CNS it was 7.76 µM; with SK-MEL-28 melanoma it was 19.9 µM; in the assay on SNB-75 CNS, 24.8 µM.
Regarding `CCOC(=O)C(C(=O)OCC)=C1NC2(c3ccccc3Nc3ccc(C)cc32)C(C(=O)OC)S1` (stereo not given), the TGI with A498 renal, with HCT-15 colon, in the assay on M14 melanoma, in the assay with NCI/ADR-RES ovarian, in the assay on OVCAR-8 ovarian and in the assay with RPMI-8226 leukemia was above 100 µM throughout. Besides, the TGI in the assay on SF-295 CNS was above 100 µM; in the assay with SF-539 CNS it was above 100 µM; in the assay with SK-MEL-28 melanoma it was above 100 µM; with SNB-75 CNS it was 62.4 µM.
With `CCc1nc2ccc(C(F)(F)F)cc2[nH]c1=O`, the TGI in the assay with A498 renal, in the assay on HCT-15 colon, in the assay with M14 melanoma, in the assay on NCI/ADR-RES ovarian, in the assay with OVCAR-8 ovarian and with RPMI-8226 leukemia was above 100 µM each time. In addition, the TGI with SF-295 CNS, with SF-539 CNS, in the assay on SK-MEL-28 melanoma and with SNB-75 CNS was above 100 µM in each case.
In the case of `C#CCn1c(=O)c(Cl)cn(/C(=C/C(=O)OCC)C(=O)OCC)c1=O`, the TGI with A498 renal is 40.8 µM; in the assay on HCT-15 colon, 25.2 µM; with M14 melanoma it was 22.8 µM; in the assay on NCI/ADR-RES ovarian, above 79.3 µM; with OVCAR-8 ovarian, 12.9 µM; in the assay with RPMI-8226 leukemia, 5.28 µM. For the same compound, the TGI in the assay on SF-295 CNS was above 66.7 µM; in the assay on SF-539 CNS, 12.7 µM; with SK-MEL-28 melanoma, 38.9 µM; in the assay with SNB-75 CNS, 34.2 µM.
Consider `O=[N+]([O-])c1c2nc3n(c2cc2c1nc1n2CCC1)CCC3`, for which the TGI with A498 renal, in the assay on HCT-15 colon, in the assay on M14 melanoma, in the assay on NCI/ADR-RES ovarian, in the assay on OVCAR-8 ovarian and in the assay with RPMI-8226 leukemia was above 100 µM in each case. Also, the TGI in the assay on SF-295 CNS, in the assay with SF-539 CNS, in the assay on SK-MEL-28 melanoma and in the assay on SNB-75 CNS was above 100 µM throughout.
`CCOC(=O)Cn1c(=O)c2cc(-c3ccccc3)cc3c(Cl)nc4c(OC)c(OC)cc1c4c32`: the TGI was 59.6 µM in the assay with A498 renal; 32.2 µM with HCT-15 colon; 32.9 µM with M14 melanoma; 56.5 µM in the assay with NCI/ADR-RES ovarian; 44.4 µM in the assay on OVCAR-8 ovarian; 46.8 µM in the assay with RPMI-8226 leukemia. Besides, the TGI was above 100 µM with SF-295 CNS, above 100 µM in the assay with SF-539 CNS, 55.4 µM with SK-MEL-28 melanoma and 49.6 µM in the assay on SNB-75 CNS.
For `NC1CC(=O)c2sccc21` (stereo not given), the TGI in the assay on A498 renal, with HCT-15 colon, with M14 melanoma, with NCI/ADR-RES ovarian, in the assay on OVCAR-8 ovarian and with RPMI-8226 leukemia was above 100 µM each time. In addition, the TGI in the assay with SF-295 CNS, in the assay on SF-539 CNS, in the assay on SK-MEL-28 melanoma and with SNB-75 CNS was above 100 µM each time.
Consider `CC(C)OC(=O)[C@@H](O)[C@H](CO)C1=CC([Si](C)(C)c2ccccc2)=CON1`, for which the TGI in the assay with A498 renal, in the assay with HCT-15 colon, with M14 melanoma, in the assay with NCI/ADR-RES ovarian, with OVCAR-8 ovarian and in the assay with RPMI-8226 leukemia was above 100 µM throughout. Moreover, the TGI in the assay with SF-295 CNS is above 100 µM; with SF-539 CNS it was above 100 µM; in the assay with SK-MEL-28 melanoma it was above 100 µM; in the assay with SNB-75 CNS it was 69.2 µM.
Turning to `COc1ccccc1NC(=O)O/N=C(/Cl)C(C)C`, the TGI with A498 renal was found to be 29.9 µM; in the assay on HCT-15 colon, 27 µM; in the assay on M14 melanoma, 20.3 µM; in the assay on NCI/ADR-RES ovarian, 35.5 µM; in the assay on OVCAR-8 ovarian, 28.6 µM; with RPMI-8226 leukemia it was 4.71 µM. Further, the TGI in the assay on SF-295 CNS stood at 29.1 µM; with SF-539 CNS, 35.9 µM; in the assay with SK-MEL-28 melanoma, 27.8 µM; with SNB-75 CNS it was 27.1 µM.
As for `Nn1c(Cc2ccccc2)n[nH]c1=O`, the TGI in the assay on A498 renal, in the assay with HCT-15 colon, in the assay with M14 melanoma, in the assay with NCI/ADR-RES ovarian, in the assay on OVCAR-8 ovarian and in the assay on RPMI-8226 leukemia was above 100 µM in each case. The TGI in the assay with SF-295 CNS, in the assay with SF-539 CNS, with SK-MEL-28 melanoma and with SNB-75 CNS was above 100 µM throughout.
Regarding `Cc1ccc(C(=O)Nc2ccc(S(=O)(=O)O)c3cc(S(=O)(=O)O)cc(S(=O)(=O)O)c23)cc1NC(=O)c1cccc(NC(=O)Nc2cccc(C(=O)Nc3cc(C(=O)Nc4ccc(S(=O)(=O)O)c5cc(S(=O)(=O)O)cc(S(=O)(=O)O)c45)ccc3C)c2)c1` (tested in a mixture with another compound), the TGI with A498 renal, in the assay on HCT-15 colon, in the assay with M14 melanoma, with NCI/ADR-RES ovarian, in the assay with OVCAR-8 ovarian and with RPMI-8226 leukemia was above 50 µM in each case. The TGI in the assay with SF-295 CNS, with SF-539 CNS, in the assay on SK-MEL-28 melanoma and in the assay with SNB-75 CNS was above 50 µM each time.
With `CCCCCCCCCCCCCCCCCCOCC(COP(=O)([O-])OCC[N+](C)(C)C)OC` (stereo not given), the TGI was 45.8 µM with A498 renal; 11.3 µM in the assay with HCT-15 colon; above 63.5 µM in the assay with M14 melanoma; 64.1 µM in the assay with NCI/ADR-RES ovarian; 57.7 µM in the assay on OVCAR-8 ovarian; 45.7 µM in the assay with RPMI-8226 leukemia. Moreover, the TGI is 29.7 µM in the assay on SF-295 CNS, above 70.2 µM in the assay with SF-539 CNS, 57.9 µM with SK-MEL-28 melanoma and 37.2 µM in the assay on SNB-75 CNS.
For `C=C(C(=O)OC)c1cc2ccccc2n1S(=O)(=O)c1ccccc1`, the TGI worked out at 5.69 µM in the assay with A498 renal; 5.37 µM in the assay with HCT-15 colon; 9.55 µM with M14 melanoma; 18.7 µM in the assay with NCI/ADR-RES ovarian; 8.42 µM in the assay with OVCAR-8 ovarian; 5.43 µM in the assay with RPMI-8226 leukemia. Further, the TGI in the assay on SF-295 CNS turned out to be 20.8 µM; with SF-539 CNS, 3.66 µM; in the assay with SK-MEL-28 melanoma, 5.79 µM; in the assay on SNB-75 CNS, 14.5 µM.
On to `C(=C\c1cc(-c2ccc3ccccc3n2)nc2ccc3ccccc3c12)/c1ccc2ccccc2n1`, for which the TGI with A498 renal, with HCT-15 colon, with M14 melanoma, in the assay on NCI/ADR-RES ovarian, in the assay with OVCAR-8 ovarian and in the assay on RPMI-8226 leukemia was above 100 µM in each case. Besides, the TGI with SF-295 CNS is above 100 µM; with SF-539 CNS, above 100 µM; with SK-MEL-28 melanoma, above 100 µM; in the assay with SNB-75 CNS, 97.9 µM.
Take `CC(C)(C)c1ccc(C(C)(C)C)c(N2C(=O)C3ON=C(c4ccc([N+](=O)[O-])cc4)C3C2=O)c1` (stereo not given): the TGI is 23.2 µM in the assay with A498 renal; above 25 µM with HCT-15 colon; above 25 µM in the assay on M14 melanoma; above 25 µM in the assay with NCI/ADR-RES ovarian; above 25 µM in the assay with OVCAR-8 ovarian; above 25 µM with RPMI-8226 leukemia. For the same compound, the TGI in the assay on SF-295 CNS was above 25 µM; with SF-539 CNS it was above 25 µM; in the assay with SK-MEL-28 melanoma, above 25 µM; in the assay with SNB-75 CNS, 14.3 µM.
With `C/C(=N\N=C(N)N)C(CN(C)C)C(c1ccccc1)c1c(O)c2ccccc2oc1=O` (stereo not given), the TGI in the assay with A498 renal, with HCT-15 colon, with M14 melanoma, in the assay with NCI/ADR-RES ovarian, in the assay on OVCAR-8 ovarian and in the assay on RPMI-8226 leukemia was above 100 µM throughout. The TGI with SF-295 CNS, in the assay with SF-539 CNS, in the assay on SK-MEL-28 melanoma and in the assay on SNB-75 CNS was above 100 µM each time.
For `CC12CCC(C(Nc3ccccn3)C1=O)C2(C)C` (stereo not given), the TGI in the assay on A498 renal, in the assay on HCT-15 colon, in the assay on M14 melanoma, in the assay on NCI/ADR-RES ovarian, in the assay on OVCAR-8 ovarian and in the assay with RPMI-8226 leukemia was above 100 µM each time. Further, the TGI in the assay on SF-295 CNS, in the assay on SF-539 CNS, in the assay with SK-MEL-28 melanoma and with SNB-75 CNS was above 100 µM in each case.
